Reference: patent publication US5468760A, “Aralkyl-N-hydroxyureas as inhibitors of 5-lipoxygenase and oxidation of low density lipoprotein” (American Home Products Corporation, priority 1993, dated 1995)
Each block holds one molecule with its values, some of them ahead of it.

Assays:
5-Lipoxygenase = molecular target: T1, 5-Lipoxygenase (Homo sapiens, UniProt P09917); assay: Inhibition of 5-Lipoxygenase in Human Whole Blood (LTB4, calcium ionophore A23187); assay type: cell-based
T1 construct: endogenous in cells; host or cells: human whole blood from male donors (results expressed per 10^6 neutrophils)
T1 sequence (P09917 1-674): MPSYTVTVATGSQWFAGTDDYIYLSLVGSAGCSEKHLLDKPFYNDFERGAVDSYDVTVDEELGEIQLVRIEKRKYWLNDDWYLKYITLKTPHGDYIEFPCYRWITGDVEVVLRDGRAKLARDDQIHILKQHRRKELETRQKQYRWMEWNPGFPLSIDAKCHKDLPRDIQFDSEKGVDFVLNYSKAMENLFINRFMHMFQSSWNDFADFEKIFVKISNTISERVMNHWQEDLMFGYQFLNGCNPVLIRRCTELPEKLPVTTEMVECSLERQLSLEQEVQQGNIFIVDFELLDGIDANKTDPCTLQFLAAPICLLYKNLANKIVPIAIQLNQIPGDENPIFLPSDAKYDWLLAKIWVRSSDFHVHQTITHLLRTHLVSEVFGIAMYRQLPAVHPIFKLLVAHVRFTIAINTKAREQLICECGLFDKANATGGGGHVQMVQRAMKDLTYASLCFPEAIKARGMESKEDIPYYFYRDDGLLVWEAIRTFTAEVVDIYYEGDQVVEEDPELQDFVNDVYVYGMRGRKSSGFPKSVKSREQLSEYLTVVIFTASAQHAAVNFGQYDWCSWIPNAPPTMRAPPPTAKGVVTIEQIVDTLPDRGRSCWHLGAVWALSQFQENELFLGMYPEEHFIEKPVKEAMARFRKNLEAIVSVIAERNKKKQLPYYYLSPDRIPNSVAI
Procedure: 1. Inhibition of 5-Lipoxygenase in Human Whole Blood
Blood is obtained in 50-100 ml quantities from male donors. White blood cell counts and differentials are made. Two ml of blood are placed in a 15 ml polypropylene test tube. Test compounds are solubilized in dimethylsulfoxide and diluted in 1:10 in 10% bovine serum albumin in phosphate buffered saline, pH 7.4 resulting in a final dimethylsulfoxide concentration of 0.1% in the blood. Then, solutions of test compounds are added to the blood in a shaking water bath at 37° C. for 10 minutes prior to the addition of 30 μM calcium ionophore (A23 187, Sigma). After ionophore administration, whole blood samples are mixed and incubated for 20 minutes at 37° C. in a shaking water bath. Incubation is terminated by placing samples in an ice bath and immediately adding ethylene glycol-bis-(β-aminoethyl ether)-N,N,N',N'-tetraaceticacid (10 mM). Samples are mixed and centrifuged at 1200 x g for 15 minutes at 4° C. Preparation of samples for evaluation by RIA or ELISA is carried out by the following protocol. Plasma is removed from sample tubes, placed in 15 ml polypropylene test tubes containing 8 ml methanol, and then vortexed to precipitate protein. Samples are stored at -70° C. overnight. The next day, samples are centrifuged at 200 x g for 15 minutes at 4° C. to pellet the precipitate. Samples are dried in a Savant SpeedVac Concentrator, Model SVC 200H, reconstituted to original volume with ice cold RIA or ELISA buffer, and stored at -70° C. until assayed. The assay for eicosanoids (LTB4, TxB2, and PGE2) is performed as described by the manufacturer of the [^3 H]-RIA kit or ELISA kit (LTB4 -Amersham, TxB2 and PGE2 -Caymen Chemical).
The total eicosanoid level in 2 ml of blood is calculated and reported as ng/10^6 neutrophils. Significance is determined by a one-way analysis of variance with least significant difference (LSD) comparisons to control (p≤0.05) and IC50 's (μM) are determined by regression analysis (Finney, 1978). Drug effects are expressed as percent change from control values.

LTB4 Synthesis = assay: Reverse Passive Arthus Reaction (pleurisy), LTB4 in pleural exudate; assay type: in vivo, rat (male Lewis); details: for % Inhibition of LTB4 / ED50: standard drugs; for ED50: Rattus norvegicus, po, values in parentheses are ED50, read-out: (ED50) Inhibition of LTB4
Procedure: 3. Reverse Passive Arthus Reaction
A reverse passive Arthus reaction is induced in the pleural cavity of male Lewis rats (150-200 g; fasted overnight prior to use) by the intravenous administration of bovine serum albumin (BSA; 4 mg/0.2 ml) followed 30 minutes later by the injection of rabbit anti-BSA (1 mg/0.2 ml; lyophilized IgG fraction; Organon Teknika, West Chester, Pa.) into the right pleural space under halothane anesthesia. Drugs or vehicle (0.5% Tween-80) control are administered orally in a volume of 1 ml/100 g body weight at 1 hour prior to the anti-BSA. Animals are sacrificed at either the time of peak eicosanoid production (i.e. 5 minutes after anti-BSA for immunoreactive TxB2, 10 minutes for immunoreactive LTB4, 20 minutes for immunoreactive LTC4) or at the time of peak neutrophil infiltration (4 hours after anti-BSA) by CO2 inhalation. The pleural cavity is then exposed., the fluid exudate removed by gentle vacuum aspiration and the volume of exudate is recorded. For the determination of cellular infiltration, the pleural cavity is rinsed with 3 ml of 0.1% EDTA in sterile saline, and the recovered wash is pooled with the exudate. Cell number is determined on a model ZBI Coulter counter. For determination of eicosanoid production, undiluted pleural exudate is microfuged and the supernatant is extracted with ethanol (8-10 times volume). Extracts are either stored at -20° C., or are evaporated to dryness under a stream of N2 and reconstituted in radioimmunoassay (RIA) buffer.
Eicosanoids are quantitated by RIA according to the procedure specified by the RIA kit manufacturer (Advanced Magnetics, Cambridge, Mass.). Briefly, 100 μl of ^3 H-labeled eicosanoid and 100 μl of specific antibody are sequentially added to 100 μl of extracted pleural exudate in BGG-phosphate buffer which contains 0.01M phosphate, 0.1% bovine gamma globulin and 0.1% sodium azide at pH 7.0. Antibody-bound eicosanoid is separated from unbound eicosanoid by the addition of 750 μl of dextran (0.4%)-coated charcoal (Norit A) containing 0.1% sodium azide. The mixture is centrifuged at 2000 RPM at 5° C. for 15 minutes to pellet the charcoal and adsorbed unbound eicosanoid. Antibody-bound labeled eicosanoid is quantitated by counting in a liquid scintillation counter, and is correlated to concentration by a standard curve.

[1] = tested on: LT-dependent bronchoconstriction; assay: Inhibition of Bronchoconstriction in Guinea Pigs Induced by Exogenously Administered Antigen; assay type: in vivo, guinea pig (male); details: Cavia porcellus, 5 min, 5 min post-antigen challenge; for inhibition in vivo at 10 mg/kg: iv, 10 mg/kg i.v.
Procedure: 4. Inhibition of Brochoconstriction in Guinea Pigs Induced by Exogenously Administered Antigen
Male guinea pigs (Charles River, Wilmington, Mass.) were sensitized 3-4 weeks prior to antigen challenge by administration of 2 i.m. injections of ovalbumin, 1 into each hind limb (35 mg total). Sensitized animals (500-600 g) were fasted overnight prior to experimentation. Conscious animals were then dosed p.o. with drug or vehicle alone (0.5% Tween 80 in H2 O) at the indicated times prior to antigen challenge, or anesthetized animals were dosed i.v. with drug or vehicle alone (DMSO) 5 min prior to antigen challenge. Animals were anesthetized by urethane (2.8 g/kg i.p.). A carotid artery and jugular vein were cannulated to allow for the monitoring of blood pressure and the administration of drugs, respectively. The trachea was then cannulated and connected to a Harvard Apparatus rodent ventilator (S. Natick, Mass.). Spontaneous respiration was abolished by the administration of succinylcholine (2.5 mg/kg i.v.). The animals were then ventilated with room air at a rate of 65 breaths per min. Airway inflation pressure was measured using a Statham pressure transducer (Gould Instruments, Cleveland, Ohio) connected to the tracheal cannula via a side-arm and recorded on a Grass Instruments recorder (Quincy, Mass.). The tidal volume (approximately 10 cc/kg) was adjusted to give a baseline inflation pressure of 8-10 cm H2 O at end inspiration. Animals were then allowed 20 min to stabilize.
Following the stabilization period, animals were given i.v. injections of pyrilamine (5 mg/kg), propranolol (0.1 mg/kg) and indomethacin (10 mg/kg) at 15, 10 and 5 min, respectively, prior to antigen challenge. This pretreatment results in an LT-dependent bronchoconstriction following antigen challenge, which was accomplished by i.v. administration of ovalbumin (10 mg/kg). Only one bronchoconstriction per animal was induced. End-inspiratory inflation pressure (in cm H2 O over baseline) was measured at 5 min post-antigen challenge. A mean value and standard error for the % inhibition of control bronchoconstriction in each drug-treated group was then calculated.

Molecule: 1,3-Dihydroxy-1-[4-(5-methyl-2-phenyl-oxazol-4-ylmethoxy)-benzyl]-urea [Example 17]
% Inhibition of LTB4 (5-Lipoxygenase; 10 μM): 83%

Molecule: Cc1oc(-c2ccc(C(F)(F)F)cc2)nc1COc1cc(F)cc(CN(O)C(N)=O)c1 [Example 12, 1-[3-Fluoro-5-[5-methyl-2-(4-trifluoromethyl-phenyl)-oxazol-4-ylmethoxy]-benzyl]-1-hydroxy-urea]
inhibition at 10 µM (5-Lipoxygenase; 10 μM): 85%

Molecule: O=C(O)Cc1ccccc1Nc1c(Cl)cccc1Cl [Diclofenac, reference compound]
% Inhibition of LTB4 (LTB4 Synthesis; 10 mg/kg p.o.): 0%

Molecule: O=C1CCN(c2ccccc2)N1 [Phenidone, reference compound]
ED50 (LTB4 Synthesis; p.o.): 10 mg/kg

Molecule: COc1ccc2c(c1)c(CC(=O)O)c(C)n2C(=O)c1ccc(Cl)cc1 [Indomethacin, reference compound]
% Inhibition of LTB4 (LTB4 Synthesis; 4 mg/kg p.o.): 12%

Molecule: Cc1oc(-c2cc(C(F)(F)F)cc(C(F)(F)F)c2)nc1COc1cccc(CN(O)C(N)=O)c1 [Example 11, 1-[3-[2-(3,5-Bis-trifluoromethyl-phenyl)-5-methyl-oxazol-4-ylmethoxy]-benzyl]-1-hydroxy-urea]
inhibition at 10 µM (5-Lipoxygenase; 10 μM): 57%

Molecule: NC(=S)N(O)Cc1cccc(OCc2coc(-c3ccc(F)cc3)n2)c1 [Example 4, 1-Hydroxy-1-[3-[2-(4-fluoro-phenyl)-oxazol-4-ylmethoxy]-benzyl]-thiourea]
inhibition at 1 µM (5-Lipoxygenase): 61%
inhibition in vivo at 10 mg/kg [1]: 53%

Molecule: COc1ccc2cc([C@H](C)C(=O)O)ccc2c1 [Naproxen, reference compound]
% Inhibition of LTB4 (LTB4 Synthesis; 4 mg/kg p.o.): 0%

Molecule: CC(C(=O)O)c1cccc(C(=O)c2ccccc2)c1 (stereo not shown) [Ketoprofen, reference compound]
% Inhibition of LTB4 (LTB4 Synthesis; 10 mg/kg p.o.): 35%

Molecule: Cc1oc(-c2ccc(Cl)cc2)nc1COc1cccc(/C=C/C(C)N(O)C(N)=O)c1 (stereo not shown) [Example 16, (E)-1-[3-[3-[2-(4-chlorophenyl)-5-methyl-oxazol-4-ylmethoxy]-phenyl]-1-methyl-allyl]-1-hydroxyl-urea]
inhibition at 10 µM (5-Lipoxygenase; 10 μM): 57%

Molecule: NC1=NN(c2cccc(C(F)(F)F)c2)CC1 [BW755C, reference compound]
ED50 (LTB4 Synthesis; p.o.): 23 mg/kg

Molecule: Cc1oc(-c2ccccc2)nc1COc1cccc(CN(O)C(=O)N(C)O)c1 [Example 18, 1,3-Dihydroxy-3-methyl-1-[3-(5-methyl-2-phenyl-oxazol-4-ylmethoxy)benzyl]-urea]
inhibition at 10 µM (5-Lipoxygenase; 10 μM): 69%

Continued, in another order:

inhibition at 10 µM (5-Lipoxygenase; 10 μM): 47%
Molecule: CC(/C=C/c1cccc(OCc2csc(-c3ccccc3)n2)c1)N(O)C(N)=O (stereo not shown) [Example 15, (E)-1-Hydroxy-1-[1-methyl-3-[3-(2-phenyl-thiazol-4-ylmethoxy)-phenyl]-allyl]-urea]

inhibition at 1 µM (5-Lipoxygenase): 77%
Molecule: Cc1oc(-c2ccc(Cl)cc2)nc1COc1cccc(CN(O)C(N)=O)c1 [Example 8, 1-[3-[2-(4-Chloro-phenyl)-5-methyl-oxazol-4-ylmethoxy]-benzyl]-1-hydroxy-urea]
% Inhibition LTB4 Synthesis (LTB4 Synthesis; 10 mg/kg, p.o.): 39%
inhibition in vivo at 10 mg/kg [1]: 41%

inhibition at 1 µM (5-Lipoxygenase): 50%
Molecule: COc1ccc(-c2nc(COc3cccc(CN(O)C(N)=O)c3)cs2)cc1 [Example 7, 1-Hydroxy-1-[3-[2-(4-methoxy-phenyl)-thiazol-4-ylmethoxy]-benzyl]-urea]
inhibition in vivo at 10 mg/kg [1]: 58%
inhibition in vivo at 25 mg/kg ([1]; po, 25 mg/kg p.o.): 18%

inhibition at 10 µM (5-Lipoxygenase; 10 μM): 80%
Molecule: Cc1oc(-c2ccccc2)nc1COc1cccc(C(C)N(O)C(N)=O)c1 (stereo not shown) [Example 14, 1-Hydroxy-1-[1-[3-(5-methyl-2-phenyl-oxazol-4-ylmethoxy)-phenyl]-ethyl]-urea]

inhibition at 1 µM (5-Lipoxygenase): 51%
Molecule: Cc1oc(-c2cccc(C(F)(F)F)c2)nc1COc1cccc(CN(O)C(N)=O)c1 [Example 10, 1-Hydroxy-1-[3-[2-(3-trifluoromethyl-phenyl)-5-methyl-oxazol-4-ylmethoxy]-benzyl]-urea]
